Results from publication PMC10451629, “Evaluation of the Effects of Heteroaryl Ethylene Molecules in Combination with Antibiotics: A Preliminary Study on Control Strains” (Antibiotics, 2023).
pIC50: −log10 of the molar value. Converted amounts (≈) assume the structure as drawn. “And” between values parts separate entries of the source, which are not always exact repeats. Identical values can stand only once. Like-named read-outs stand apart in the source and are kept apart here. One block for each molecule: values may come before it.

Columns and labels:
[1] = system: CaCo2 colon-rectal cancer cell line; set-up: method as in in-house dataset; Log(IC50) 48h: unit not given here; details: in-house dataset previously tested by the authors' groups, ref in-house dataset, cited from earlier work; for pIC50: 48h
E. coli ATCC 25922 = experiment: Broth microdilution MIC; assay type: cell-based; details: Escherichia coli, ATCC25922, substance alone, read-out: MIC
S. aureus ATCC 12598 = experiment: Broth microdilution MIC; assay type: cell-based, Staphylococcus aureus; details: for MIC: Staphylococcus aureus
P. aeruginosa ATCC 27853 = experiment: Broth microdilution MIC; assay type: cell-based, Pseudomonas aeruginosa; details: Pseudomonas aeruginosa, ATCC27853, P. aeruginosa ATCC 27853; substance alone; read-out: MIC
[2] = system: CaCo-2 (ATCC HTB-37) colon–rectal cancer cell line; experiment: MTT cytotoxicity assay on CaCo-2 cells; assay type: cell-based, human; details: for pIC50: Homo sapiens, CaCo-2 cell line, MTT
Description: To fully assess the biological activity of the new molecules, they were tested at different concentrations on the CaCo-2 (ATCC HTB-37) colon–rectal cancer cell line. These human cancer cells were exposed to compound solutions ranging in concentration from 100 µM to 0.01 µM. As a reference compound for these assays, we used 5-Fluorouracil (5-FU), a pyrimidine analog from the antimetabolite family.
The MTT assay was also performed for the selected antibiotics to evaluate the effect of their combined treatment with PB4.
To evaluate the effect of the heteroaryl ethylene compounds and the antibiotics, an MTT ([3-(4,5-dimethylthiazol-2-yl)-2,5-diphenyltetrazolium bromide]) assay was performed as previously described. […] Both concentrations were also tested in combination with PB4 0.2 µM. All antibiotics were provided by Thermo Scientific^TM Oxoid^TM, Basingstoke, UK. Twenty-four hours after plating, the cells were treated with 20 μL of each solution. Untreated cells were used as controls. […] The IC50 values were calculated by nonlinear regression analysis using GraphPad Prism 6.0 software.

S. enterica ATCC 14028 = experiment: Broth microdilution MIC; assay type: cell-based; details: Salmonella enterica, ATCC14028, substance alone
[3] = system: K. pneumoniae ATCC 700603; experiment: Broth microdilution MIC; assay type: cell-based, Klebsiella pneumoniae; details: Klebsiella pneumoniae, ATCC700603, K. pneumoniae ATCC 700603; substance alone; read-out: MIC
S. aureus ATCC 29213 = experiment: Broth microdilution MIC; assay type: cell-based; details: Staphylococcus aureus
[4] = system: S. aureus ATCC BAA-1556 USA300; experiment: Broth microdilution MIC; assay type: cell-based, Staphylococcus aureus; details: for MIC: Staphylococcus aureus, S. aureus ATCC BAA-1556 USA300, substance alone
A. baumannii ATCC 17978 = experiment: Broth microdilution MIC; assay type: cell-based; details: Acinetobacter baumannii, ATCC17978, substance alone
E. faecalis ATCC 29212 = experiment: Broth microdilution MIC; assay type: cell-based, Enterococcus faecalis; details: for MIC: Enterococcus faecalis
all tested strains = experiment: Broth microdilution MIC, summary over all tested strains; assay type: cell-based; details: all tested bacterial strains; antibiotic + PB4
S. aureus ATCC29213 = details: QSAR dataset; cited from earlier work
[5] = ATCC12598, S. aureus ATCC 12598, substance alone, read-out: MIC
[6] = Caco-2, 24 h, 24 h of treatment, read-out: IC50 at 24 h
[7] = Caco-2, 48 h, 48 h of treatment, read-out: IC50 at 48 h
[8] = ATCC29213, S. aureus ATCC 29213, substance alone, read-out: MIC
[9] = ATCC29212, E. faecalis ATCC 29212, substance alone, read-out: MIC

Compound: C[n+]1ccccc1/C=C/c1ccc(N(c2ccccc2)c2ccccc2)cc1 [GC VII 47]
- pIC50 [1]: 6.00
- Log(IC50) 48h [1]: 0

- MIC (E. coli ATCC 25922): ≥ 128 µg/mL
- MIC (S. aureus ATCC 12598; [5]): 32 µg/mL and 60.9 µM
- MIC (P. aeruginosa ATCC 27853): ≥ 128 µg/mL and ≥ 244 µM
- MIC (S. enterica ATCC 14028): ≥ 128 µg/mL and ≥ 244 µM
- MIC [3]: ≥ 128 µg/mL and ≥ 244 µM
- MIC (S. aureus ATCC 29213; [8]): 128 µg/mL and 244 µM
- MIC [4]: > 128 µg/mL and > 244 µM
- MIC (A. baumannii ATCC 17978): ≥ 128 µg/mL and ≥ 244 µM
- MIC (E. faecalis ATCC 29212; [9]): 16 µg/mL and 30.4 µM
Compound: C[n+]1c(/C=C/c2ccc3ccccc3c2)cccc1/C=C/c1ccc2ccccc2c1 [GC-VII-39]
- pIC50 [2, 6]: 6.64
- pIC50 [2, 7]: 6.74

Compound: CN(C)c1ccc(/C=C/C=C/c2cccc[n+]2C)cc1 [GF I 25]
- pIC50 [1]: 5.00
- Log(IC50) 48h [1]: 1

Compound: Cn1c(/C=C/c2ccncc2)ccc1/C=C/c1cc[n+](C)cc1 [GF I 30]
- pIC50 [1]: 4.30
- Log(IC50) 48h [1]: 1.70

Compound: Cn1c(/C=C/C2=C(C#N)C(=C(C#N)C#N)OC2(C)C)ccc1/C=C/c1cc[n+](C)cc1 [GF I 32]
- pIC50 [1]: 4.49
- Log(IC50) 48h [1]: 1.51

Compound: CC(=O)NC[C@H]1CN(c2ccc(N3CCOCC3)c(F)c2)C(=O)O1 [Linezolid, linezolid, reference compound]
- MIC (S. aureus ATCC 12598; [5]): 4 µg/mL (≈ 11.9 µM)
- MIC reduction in combination with PB4 (all tested strains): no significant MIC reductions
- MIC (S. aureus ATCC 29213; [8]): 4 µg/mL (≈ 11.9 µM)
- MIC [4]: 2 µg/mL (≈ 5.93 µM)
- MIC (E. faecalis ATCC 29212; [9]): 4 µg/mL (≈ 11.9 µM)

Compound: CCCCN(CCCC)c1ccc(-c2ccc(/C=C/c3ccc4ccccc4[n+]3C)s2)s1 [PB2]
- MIC (S. aureus ATCC29213): 4 µg/mL

- MIC (E. coli ATCC 25922): 2 µg/mL and 3.91 µM
- Reduction of PB4 MIC in combination with GC-VI-70 (S. aureus ATCC 12598; S. aureus ATCC 12598): 2 logs
- MIC of PB4 + GC-VI-70 combination (S. aureus ATCC 12598; S. aureus ATCC 12598, PB4 fixed at its MIC for the strain, GC-VI-70 128 to 0.125 mg/L): 0.06 µg/mL
- MIC (S. aureus ATCC 12598; [5]): 0.25 µg/mL and 0.49 µM
- MIC (P. aeruginosa ATCC 27853): > 128 µg/mL and > 250 µM
- MIC (S. enterica ATCC 14028): 64 µg/mL and 125 µM
- MIC [3]: 64 µg/mL and 125 µM
- MIC (S. aureus ATCC 29213; [8]): 0.125 µg/mL and 0.24 µM
- MIC [4]: ≤ 0.125 µg/mL and ≤ 0.24 µM
- MIC (A. baumannii ATCC 17978): ≤ 0.125 µg/mL and ≤ 0.24 µM
- Reduction of PB4 MIC in combination with GC-VI-70 (E. faecalis ATCC 29212; E. faecalis ATCC 29212): 2 logs
- MIC of PB4 + GC-VI-70 combination (E. faecalis ATCC 29212; E. faecalis ATCC 29212, PB4 fixed at its MIC for the strain, GC-VI-70 128 to 0.125 mg/L): 0.06 µg/mL
- MIC (E. faecalis ATCC 29212; [9]): 0.5 µg/mL and 0.98 µM
Compound: CN(C)c1ccc(/C=C/c2cccc(/C=C/c3ccc(N(C)C)cc3)[n+]2C)cc1 [PB4]
- Percentage of cell growth, PB4 0.2 µM ([2]; CaCo-2, PB4 alone 0.2 µM, 48 h): 72.7%
- pIC50 [2, 6]: 6.51
- pIC50 [2, 7]: 6.52
- MIC (S. aureus ATCC29213): 0.25 µg/mL

Compound: C[n+]1ccc(/C=C/c2ccc(-c3cc(Cl)ccc3Cl)o2)cc1 [PB6]
- MIC (S. aureus ATCC29213): 4 µg/mL

Compound: CC[n+]1ccc2c(c1)CCC/C2=C\c1ccc(-c2ccc(Cl)cc2)o1 [PB7]
- MIC (S. aureus ATCC29213): 4 µg/mL

Compound: CCCCN(CCCC)c1ccc(-c2ccc(/C=C3\CCCc4c[n+](CC)ccc43)s2)s1 [PB8]
- MIC (S. aureus ATCC29213): 2 µg/mL

Compound: CO[C@H]1/C=C/O[C@@]2(C)Oc3c(C)c(O)c4c(O)c(c(/C=N/N5CCN(C)CC5)c(O)c4c3C2=O)NC(=O)/C(C)=C\C=C\[C@H](C)[C@H](O)[C@@H](C)[C@@H](O)[C@@H](C)[C@H](OC(C)=O)[C@@H]1C [Rifampin, rifampin, reference compound]
- MIC (S. aureus ATCC 12598; ATCC12598): 0.125 µg/mL (≈ 0.152 µM)
- Percentage of cell growth, antibiotic ([2]; CaCo-2, antibiotic alone at MIC for E. faecalis ATCC 29212, 24 h): 133.7%
- Percentage of cell growth, antibiotic ([2]; CaCo-2, antibiotic alone at MIC for E. faecalis ATCC 29212, 48 h): 282.6%
- Percentage of cell growth, antibiotic ([2]; CaCo-2, antibiotic alone at sub-MIC (half-MIC), 24 h): 146.6%
- Percentage of cell growth, antibiotic ([2]; CaCo-2, antibiotic alone at sub-MIC (half-MIC), 48 h): 265.6%
- Percentage of cell growth, antibiotic + PB4 0.2 µM ([2]; CaCo-2, antibiotic at MIC + PB4 0.2 µM, 24 h): 126.9%
- Percentage of cell growth, antibiotic + PB4 0.2 µM ([2]; CaCo-2, antibiotic at MIC + PB4 0.2 µM, 48 h): 158.9%
- Percentage of cell growth, antibiotic + PB4 0.2 µM ([2]; CaCo-2, antibiotic at sub-MIC + PB4 0.2 µM, 24 h): 130.6%
- Percentage of cell growth, antibiotic + PB4 0.2 µM ([2]; CaCo-2, antibiotic at sub-MIC + PB4 0.2 µM, 48 h): 163.7%
- MIC (S. aureus ATCC 29213; ATCC29213): 0.125 µg/mL (≈ 0.152 µM)
- Reduction of antibiotic MIC by PB4 ([4]; S. aureus USA 300, antibiotic + PB4 vs antibiotic alone): 4 -fold log reduction
- MIC [4]: 0.125 µg/mL (≈ 0.152 µM)
- MIC of antibiotic in combination with PB4 (E. faecalis ATCC 29212; E. faecalis ATCC 29212, PB4 at fixed 0.125 μg/mL (0.24 μM), a quarter of an MIC value): 0.006 µg/mL
- Reduction of antibiotic MIC by PB4 (E. faecalis ATCC 29212; E. faecalis ATCC 29212, antibiotic + PB4 vs antibiotic alone): 2 -fold log reduction
- MIC (E. faecalis ATCC 29212; ATCC29212): 0.125 µg/mL (≈ 0.152 µM)
- MIC (E. faecalis ATCC 29212; [9]): 0.25 µg/mL (≈ 0.304 µM)

Compound: CCn1cc(/C=C/c2sc3ccccc3[n+]2CC)c2ccccc21 [SBT, reference compound]
- MIC (S. aureus ATCC29213): 1 µg/mL

Compound: CCn1cc(/C=C/c2ccc3ccccc3[n+]2CC)c2ccccc21 [SQL, reference compound]
- MIC (S. aureus ATCC29213): 4 µg/mL
